Five compounds from patent US20250172566A1, “SACCHARIDE SENSING SYSTEMS” (CARBOMETRICS LIMITED, priority 2022, published 2025) can be followed below.

Assay [1] can be described thus: Fluorescent solution phase glucose responsive assay (pH 7.4, 298 K). The method, then:
Fluorescence spectroscopy was performed on either a HORIBA Duetta or BMG Labtech CLARIOstar plus plate reader. Emission spectra were obtained using the appropriate excitation wavelength and at a temperature of either 298 or 310 K and at pH 7.4 unless otherwise stated. Data collection and analysis were performed using EzSpec software by HORIBA or CLARIOstar MARS software by BMG Labtech. Further analysis and processing were performed in Microsoft Excel.
A solution of GBM and FIM at the required concentrations were created in the appropriate media. The emission spectrum of the assay was then acquired by exciting at the designated excitation wavelength to obtain the baseline emission intensity for the assay. Aliquots of 2 M D-glucose (in the same media) were then added to give the required final glucose concentrations (e.g. 15 μL of 2 M D-glucose in 3 mL gives a final D-glucose concentration of 10 mM) and the assay allowed to reach equilibration. The emission spectra were collected after each addition of D-glucose and compared to the original baseline emission, monitoring at the typical emission maximum (Emmax), and the percentage increase or decrease recorded. Emission spectra acquired on either a Horiba Duetta fluorometer or Clariostar plus plate reader.
The glucose responsive fluorescence emission for different combinations of glucose binding molecules (GBM) and fluorescent inhibitor molecules (FIM) at various concentrations and in various media was tested as described above. All results obtained at pH 7.4 and 298 K unless otherwise stated.
All results obtained at pH 7.4 and 298 K unless otherwise stated.
Table 4 provides the composition of the assay media used as the code assigned to each media as used in Tables 1 to 3.

Assay [2] can be described thus: Fluorescent hydrogel phase glucose responsive assay (10 mM PBS, pH 7.4, 310 K).
The nature of assay [3]: Affinity electrochemistry - cyclic voltammetry glucose responsive assay (10 mM PBS, pH 7.4, 298 K). The note with it: FIM 0.5 mM, GBM15 1 mM, reduction process. On the procedure: Affinity electrochemistry measurements were made using a Metrohm Autolab PGSTAT101 potentiostat with a BIDSC-FET interface and screen-printed electrodes DRP-200BT. Data collection and analysis were performed using Nova software by Metrohm Autolab. Further analysis and processing were performed in Microsoft Excel. Measurements obtained at 298 K and at pH 7.4 unless otherwise stated.
Separate samples containing a mixture of GBM, FIM and D-glucose at various concentrations in 10 mM PBS were prepared. 50 μL of each sample was pipetted onto the surface of the screen-printed electrode and the cyclic voltammogram acquired using the CV staircase protocol within the Nova software, using the following settings: Start potential at −0.4 V, upper vertex potential at 0.6 V, lower vertex potential at −0.4 V, stop potential at −0.39756 V, number of scans=3, scan rate at 0.1 V/s and Step at 0.00244 V. The data for each voltammogram was exported into Microsoft excel, processed and compared to give the glucose responsive electrochemical results.
Changes in applied potential and current response were monitored using the reduction process observed during the cyclic voltammogram. Measurements obtained at 298 K and pH 7.4 in 10 mM PBS medium.

Where [4] appears, read: 5 mM D-glucose, GBM15 50 uM, FIM 5 uM, Ex 470/Emmax 520 nm, medium B (10 mM PBS).
Where [5] appears, read: 10 mM D-glucose, GBM15 50 uM, FIM 5 uM, Ex 470/Emmax 520 nm, medium B (10 mM PBS).
[6] abbreviates: 20 mM D-glucose, GBM15 50 uM, FIM 5 uM, Ex 470/Emmax 520 nm, medium B (10 mM PBS).
[7] abbreviates: 20 mM D-glucose, GBM30 100 uM, FIM 10 uM, Ex 480/Emmax 520 nm, hydrogel H (amino azide dextran/PEG).

As for `C[N+](C)(C)[C@@H](CCCCn1cc(C[C@H](NC(=O)OC[C@@H]2[C@@H]3CCC#CCC[C@@H]32)C(=O)NCCOCCOCCn2cc(CNC(=O)c3ccc4c(c3)C(=O)OC43c4ccc(N)c(S(=O)(=O)[O-])c4Oc4c3ccc(N)c4S(=O)(=O)O)nn2)nn1)C(=O)NCC(CO[C@@H]1O[C@H](CO)[C@@H](O)[C@H](O)[C@H]1O)c1ccccc1` (some centres unmarked) [FIM60], the “Change in Emmax for FIM at a particular D-glucose concentration” value (“Change in Emmax for FIM” below) was determined as 220% in assay [1] (5 mM D-glucose, GBM7 50 uM, FIM 5 uM, Ex 470/Emmax 520 nm, medium B (10 mM PBS)); 80% in assay [1] (setting [4]); 120% in assay [1] (5 mM D-glucose, GBM30 50 uM, FIM 1 uM, Ex 470/Emmax 520 nm, medium B (10 mM PBS)); 250% in assay [1] (5 mM D-glucose, GBM40 20 uM, FIM 5 uM, Ex 470/Emmax 520 nm, medium B (10 mM PBS)); 250% in assay [1] (5 mM D-glucose, GBM40 20 uM, FIM 5 uM, Ex 470/Emmax 520 nm, medium C (human serum)); 80% in assay [1] (5 mM D-glucose, GBM43 40 uM, FIM 5 uM, Ex 450/Emmax 520 nm, medium B (10 mM PBS)). The “Change in Emmax for FIM” value in assay [1] (setting [5]) was determined as 130%; in assay [1] (10 mM D-glucose, GBM30 50 uM, FIM 1 uM, Ex 470/Emmax 520 nm, medium B (10 mM PBS)), 170%; in assay [1] (10 mM D-glucose, GBM43 40 uM, FIM 5 uM, Ex 450/Emmax 520 nm, medium B (10 mM PBS)), 125%; in assay [1] (20 mM D-glucose, GBM7 50 uM, FIM 5 uM, Ex 470/Emmax 520 nm, medium B (10 mM PBS)), 310%; in assay [1] (setting [6]) it was 200%; in assay [1] (20 mM D-glucose, GBM30 50 uM, FIM 1 uM, Ex 470/Emmax 520 nm, medium B (10 mM PBS)), 200%. Also, the “Change in Emmax for FIM” value was determined as 450% in assay [1] (20 mM D-glucose, GBM40 20 uM, FIM 5 uM, Ex 470/Emmax 520 nm, medium B (10 mM PBS)); 430% in assay [1] (20 mM D-glucose, GBM40 20 uM, FIM 5 uM, Ex 470/Emmax 520 nm, medium C (human serum)); 165% in assay [1] (20 mM D-glucose, GBM43 40 uM, FIM 5 uM, Ex 450/Emmax 520 nm, medium B (10 mM PBS)); 400% in assay [1] (40 mM D-glucose, GBM7 50 uM, FIM 5 uM, Ex 470/Emmax 520 nm, medium B (10 mM PBS)); 220% in assay [1] (40 mM D-glucose, GBM15 50 uM, FIM 5 uM, Ex 470/Emmax 520 nm, medium B (10 mM PBS)); 220% in assay [1] (40 mM D-glucose, GBM30 50 uM, FIM 1 uM, Ex 470/Emmax 520 nm, medium B (10 mM PBS)). For the same compound, the “Change in Emmax for FIM” value in assay [1] (40 mM D-glucose, GBM43 40 uM, FIM 5 uM, Ex 450/Emmax 520 nm, medium B (10 mM PBS)) is 200%; in assay [1] (80 mM D-glucose, GBM40 20 uM, FIM 5 uM, Ex 470/Emmax 520 nm, medium B (10 mM PBS)), 600%; in assay [1] (80 mM D-glucose, GBM40 20 uM, FIM 5 uM, Ex 470/Emmax 520 nm, medium C (human serum)), 500%; in assay [1] (80 mM D-glucose, GBM43 40 uM, FIM 5 uM, Ex 450/Emmax 520 nm, medium B (10 mM PBS)) it was 230%; in assay [2] (20 mM D-glucose, GBM15 50 uM, FIM 50 uM, Ex 480/Emmax 520 nm, hydrogel G (amino dextran/PEG/PEG3-azide)), 50%; in assay [2] (setting [7]), 40%.
As to `C#CCCC(=O)N[C@@H](Cc1cn(CCOCCOCCOCCOc2ccc(CCO[C@@H]3O[C@H](CO)[C@@H](O)[C@H](O)[C@H]3O)cc2)nn1)C(=O)NCC(=O)Nc1ccc2c(c1)C(=O)OC21c2ccc(O)cc2Oc2cc(O)ccc21` [FIM1], the “Change in Emmax for FIM” value in assay [2] (20 mM D-glucose, GBM1 10 uM, FIM 1 uM, Ex 470/Emmax 530 nm, hydrogel D (azido PEG star polymer)) is on record as 10%; in assay [2] (50 mM D-glucose, GBM1 10 uM, FIM 1 uM, Ex 470/Emmax 530 nm, hydrogel D (azido PEG star polymer)), 20%. In addition, the “Reversibility of emission on cycling (FIG. 5)” value in assay [2] (hydrogel D with GBM1 50 μM and FIM1 5 μM pre-incorporated, cycling 10 mM PBS / 20 mM D-glucose, 310 K, pH 7.4) was “shows reversibility of hydrogel”.
With `C#CCCC(=O)N[C@@H](CCCCNC(=O)Cn1cc(CNC(=O)c2ccc3c(c2)C(=O)OC32c3ccc(O)cc3Oc3cc(O)ccc32)nn1)C(=O)NCCOCCOCCOCCOCc1cn(CCO[C@@H]2O[C@H](CO)[C@@H](O)[C@H](O)[C@H]2O)nn1` [FIM66], the “Change in Emmax for FIM” value in assay [1] (setting [4]) is on record as 250%; in assay [1] (setting [5]) it was 255%; in assay [1] (setting [6]), 260%; in assay [2] (setting [7]), 140%.
As for `O=C(CNC(=O)[C@H](Cc1cn(CCOCCOCCOCCOc2ccc(CCO[C@@H]3O[C@H](CO)[C@@H](O)[C@H](O)[C@H]3O)cc2)nn1)NC(=O)OC[C@@H]1[C@@H]2CCC#CCC[C@@H]21)Nc1ccc2c(c1)C(=O)OC21c2ccc(O)cc2Oc2cc(O)ccc21` [FIM17], the “Change in Emmax for FIM” value in assay [2] (setting [7]) amounted to 120%; in assay [2] (20 mM D-glucose, GBM39 50 uM, FIM 2 uM, Ex 470/Emmax 530 nm, hydrogel D (azido PEG star polymer)), 70%; in assay [2] (50 mM D-glucose, GBM39 50 uM, FIM 2 uM, Ex 470/Emmax 530 nm, hydrogel D (azido PEG star polymer)) it was 175%; in assay [2] (60 mM D-glucose, GBM39 50 uM, FIM 2 uM, Ex 470/Emmax 530 nm, hydrogel D (azido PEG star polymer)), 215%; in assay [2] (80 mM D-glucose, GBM39 50 uM, FIM 2 uM, Ex 470/Emmax 530 nm, hydrogel D (azido PEG star polymer)) it was 295%; in assay [2] (100 mM D-glucose, GBM39 50 uM, FIM 2 uM, Ex 470/Emmax 530 nm, hydrogel D (azido PEG star polymer)), 380%.
As to `C#CCN(C)c1ccc2nc3ccc(N(C)Cc4cn(CC(CO[C@H]5O[C@@H](CO)[C@H](O)[C@@H](O)[C@@H]5O)c5ccccc5)nn4)cc3[s+]c2c1` (some centres unmarked) [FIM52], the Applied potential in assay [3] (1 mM D-glucose) is reported as −0.287 V; in assay [3] (2 mM D-glucose) it was −0.258 V; in assay [3] (10 mM D-glucose), −0.239 V; in assay [3] (20 mM D-glucose) it was −0.231 V; in assay [3] (50 mM D-glucose), −0.231 V. Besides, the Current response is reported as −9.11 ×10^−6 A in assay [3] (1 mM D-glucose); −9.52 ×10^−6 A in assay [3] (2 mM D-glucose); −10.0 ×10^−6 A in assay [3] (10 mM D-glucose); −11.1 ×10^−6 A in assay [3] (20 mM D-glucose); −11.4 ×10^−6 A in assay [3] (50 mM D-glucose).
